Assay results: the supplement of paper PMC10307832

What was measured:
Experiment in all cases: relative viability (nuclei count vs DMSO), 5 days (fraction); higher = more cells survive
[1] = compound: C1=CC2=C(C=C(C(=C2N=C1)O)N=NC3=CC4=C(C=C3)C=C(C=C4)S(=O)(=O)O)S(=O)(=O)O + CC(=O)c1c(C)c2cnc(Nc3ccc(N4CCNCC4)cn3)nc2n(C2CCCC2)c1=O [Palbociclib] (partner 0.5 µM)
Method in brief: (§1)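 Dosing by pin tool came one day after lung cancer cell lines were seeded in 1536-well plates, using either one drug or a fixed anchor-drug dose plus five library-drug doses (not always all listed) in √10 steps. After 5 days, nuclei were counted on 4× images. Relative viability is treated-well nuclei count divided by vehicle-well nuclei count, and values are medians of duplicate plates.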

[2] = compound: C1=CC2=C(C=C(C(=C2N=C1)O)N=NC3=CC4=C(C=C3)C=C(C=C4)S(=O)(=O)O)S(=O)(=O)O + C[C@@H](Oc1cc(-c2cnn(C3CCNCC3)c2)cnc1N)c1c(Cl)ccc(F)c1Cl [Crizotinib] (partner 1 µM)
Method in brief: as §1

AT-7519 + Bortezomib = compound: O=C(NC1CCNCC1)c1n[nH]cc1NC(=O)c1c(Cl)cccc1Cl [AT-7519] + CC(C)C[C@H](NC(=O)[C@H](Cc1ccccc1)NC(=O)c1cnccn1)B(O)O [Bortezomib] (partner 0.002 µM)
Method in brief: as §1

AT-7519 + Vorinostat = compound: O=C(NC1CCNCC1)c1n[nH]cc1NC(=O)c1c(Cl)cccc1Cl [AT-7519] + O=C(CCCCCCC(=O)Nc1ccccc1)NO [Vorinostat] (partner 1 µM)
Method in brief: as §1

Cell Line	relative viability ([1]; first compound 0.08 µM)	relative viability ([1]; first compound 0.253 µM)	relative viability ([1]; first compound 0.8 µM)	relative viability ([1]; first compound 2.53 µM)	relative viability ([1]; first compound 8 µM)	relative viability ([2]; first compound 0.08 µM)	relative viability ([2]; first compound 0.253 µM)	relative viability ([2]; first compound 0.8 µM)	relative viability ([2]; first compound 2.53 µM)	relative viability ([2]; first compound 8 µM)	relative viability (AT-7519 + Bortezomib; first compound 0.01 µM)	relative viability (AT-7519 + Bortezomib; first compound 0.03162 µM)	relative viability (AT-7519 + Bortezomib; first compound 0.3162 µM)	relative viability (AT-7519 + Bortezomib; first compound 1 µM)	relative viability (AT-7519 + Vorinostat; first compound 0.01 µM)	relative viability (AT-7519 + Vorinostat; first compound 0.03162 µM)	relative viability (AT-7519 + Vorinostat; first compound 0.3162 µM)	relative viability (AT-7519 + Vorinostat; first compound 1 µM)
NCI-H1355	0.401	0.372	0.368	0.395	0.429	1.16	1.04	0.986	1.17	1.14	1.26	1.16	1.31	1.29	0.65	0.624	0.661	0.598
NCI-H1437	0.356	0.321	0.308	0.3	0.352	1.07	0.894	0.897	0.909	0.919	0.448	0.514	0.494	0.307	0.815	0.842	0.929	0.353
NCI-H1650	0.369	0.302	0.301	0.328	0.308	1.05	0.894	0.962	1.15	1.01	0.19	0.203	0.183	0.194	0.534	0.681	0.489	0.23
NCI-H1651	0.522	0.502	0.511	0.55	0.499	0.968	0.834	0.837	0.874	0.729	0.912	0.917	0.971	0.974	0.606	0.505	0.56	0.643
NCI-H1666	0.667	0.704	0.626	0.668	0.645	1.22	0.949	0.95	1.06	0.946	0.782	0.794	0.733	0.333	0.998	0.931	1.03	0.959
NCI-H1734	0.367	0.323	0.344	0.375	0.329	0.733	0.66	0.724	0.64	0.662	0.782	0.884	0.842	0.442	0.723	0.831	0.739	0.535
NCI-H1755	0.473	0.438	0.437	0.468	0.415	0.977	0.819	0.858	0.938	0.849	0.927	1.09	0.976	0.969	0.769	0.693	0.839	0.814
NCI-H1915	0.415	0.523	0.488	0.545	0.494	0.973	0.864	0.893	0.912	0.925	1.07	1.06	0.546	0.944	0.537	0.558	0.588	0.546
NCI-H1975	0.753	0.592	0.606	0.639	0.666	1.1	0.961	1.01	0.994	0.929	0.352	0.301	0.433	0.202	0.805	0.679	0.624	0.27
NCI-H1993	0.625	0.669	0.603	0.687	0.763	0.866	0.904	0.864	0.797	0.896	0.987	0.979	1.07	0.683	0.629	0.605	0.82	0.539
NCI-H2009	0.221	0.22	0.245	0.214	0.192	1.14	1.04	1.09	1.07	1.02	1.08	0.908	0.96	0.704	0.782	0.725	0.81	0.746
NCI-H2023	0.451	0.395	0.391	0.421	0.309	0.831	0.702	0.654	0.726	0.483	1.12	0.985	0.855	0.503	0.759	0.503	0.46	0.269
NCI-H2085	0.492	0.481	0.451	0.486	0.463	0.956	0.891	0.855	0.85	0.725	1.22	1.04	0.995	0.964	0.783	0.78	0.74	0.929
NCI-H2087	0.238	0.213	0.199	0.215	0.191	1.04	0.952	0.957	0.694	0.833	0.82	1.05	0.811	0.51	1.01	0.632	0.607	0.206
NCI-H2126	0.342	0.363	0.359	0.36	0.327	1.09	0.937	0.993	1.03	1.01	1.17	1.14	1.13	1.17	0.79	0.731	0.646	0.668
NCI-H2228	0.81	0.726	0.79	0.822	0.92	0.399	0.597	0.642	0.587	0.482	0.977	0.801	0.66	0.8	0.406	0.671	0.572	0.517
NCI-H2347	0.459	0.447	0.44	0.482	0.426	0.691	0.674	0.651	0.768	0.636	0.916	0.873	0.952	1.27	0.463	0.527	0.637	0.379
